Data published in patent US20150105252A1, “SUBSTITUTED PYRAZOLES AS HERBICIDES” (E I DU PONT DE NEMOURS AND COMPANY, priority 2013, published 2015).

Assays:
[1] = tested on: velvetleaf; experiment: Test A preemergence; type: in vivo, Abutilon theophrasti; settings: preemergence; for Velvetleaf plant response rating (0 to 100 scale): 125 g ai/ha, visual injury approx. 10 days after treatment; for Velvetleaf plant response rating: 500 g ai/ha, visual injury after approx. 10 days, 0 to 100 scale (0 no effect, 100 complete control)
How it was run: (§1)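 Pre- and postemergence greenhouse test; loam+sand; cpd in non-phytotox. solvent/surfactant; post at 1–2 leaf, 2–10 cm; visual score ~10 d, 0 = none, 100 = complete control.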

[2] = tested on: barnyardgrass; experiment: Test B flood; type: in vivo, Echinochloa crus-galli; settings: 250 g ai/ha, visual rating on 0 to 100 scale (0 no effect, 100 complete control), 13 to 15 days
How it was run: (§2)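 Two-leaf-stage plants, pots flooded (3 cm above soil) and treated through the water, which stayed at that depth. After 13–15 days in greenhouse conditions, visual assessment versus controls: 0 is no effect, 100 complete control, dash means no result.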

[3] = tested on: velvetleaf; experiment: Test A postemergence; type: in vivo, Abutilon theophrasti; settings: Postemergence
How it was run: as §1

[4] = tested on: foxtail, giant; experiment: Test A postemergence; type: in vivo, Setaria faberii
How it was run: as §1

[5] = tested on: wheat; experiment: Test A preemergence; type: in vivo, Triticum aestivum; settings: preemergence; for Wheat plant response rating (0 to 100 scale): 125 g ai/ha, visual injury approx. 10 days after treatment; for Wheat plant response rating: 500 g ai/ha, visual injury after approx. 10 days, 0 to 100 scale (0 no effect, 100 complete control)
How it was run: as §1

[6] = tested on: foxtail, giant; experiment: Test A preemergence; type: in vivo, Setaria faberii; settings: preemergence; for Foxtail, Giant plant response rating (0 to 100 scale): 125 g ai/ha, visual injury approx. 10 days after treatment; for Foxtail, Giant plant response rating: 500 g ai/ha, visual injury after approx. 10 days, 0 to 100 scale (0 no effect, 100 complete control)
How it was run: as §1

[7] = tested on: barnyardgrass; experiment: Test A postemergence; type: in vivo, Echinochloa crus-galli
How it was run: as §1

[8] = tested on: barnyardgrass; experiment: Test A preemergence; type: in vivo, Echinochloa crus-galli; settings: preemergence; for Barnyardgrass plant response rating (0 to 100 scale, 0 is no effect, 100 is complete control): 125 g ai/ha, visual injury approx. 10 days after treatment; for Barnyardgrass plant response rating: 500 g ai/ha, visual injury after approx. 10 days, 0 to 100 scale (0 no effect, 100 complete control)
How it was run: as §1

[9] = tested on: corn; experiment: Test A preemergence; type: in vivo, Zea mays; settings: preemergence; for Corn plant response rating (0 to 100 scale): 125 g ai/ha, visual injury approx. 10 days after treatment; for Corn plant response rating: 500 g ai/ha, visual injury after approx. 10 days, 0 to 100 scale (0 no effect, 100 complete control)
How it was run: as §1

[10] = tested on: sedge, umbrella; experiment: Test B flood; type: in vivo, Cyperus difformis; settings: 250 g ai/ha, visual rating on 0 to 100 scale (0 no effect, 100 complete control), 13 to 15 days
How it was run: as §2

[11] = tested on: pigweed; experiment: Test C preemergence; type: in vivo, Amaranthus retroflexus; settings: preemergence; for Plant response rating, Pigweed: 125 g ai/ha, scale 0 to 100, 0 = no effect, 100 = complete control
How it was run: (§3)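 Visual control ratings on a 0–100 scale (100 = complete control) made against untreated controls after 13 to 15 days in greenhouse. Compounds applied in surfactant-containing solvent mixture, either preemergence to loam/sand-sown seeds or postemergence to 1- to 4-leaf plants (2–18 cm) in peat medium.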

[12] = tested on: nutsedge, yellow; experiment: Test C preemergence; type: in vivo, Cyperus esculentus; settings: preemergence; for Plant response rating, Nutsedge, Yellow: 125 g ai/ha, scale 0 to 100, 0 = no effect, 100 = complete control
How it was run: as §3

[13] = tested on: morningglory; experiment: Test C preemergence; type: in vivo, Ipomoea coccinea; settings: preemergence; for Plant response rating, Morningglory: 125 g ai/ha, scale 0 to 100, 0 = no effect, 100 = complete control
How it was run: as §3

[14] = tested on: crabgrass, large; experiment: Test C preemergence; type: in vivo, Digitaria sanguinalis; settings: preemergence; for Plant response rating, Crabgrass, Large: 125 g ai/ha, scale 0 to 100, 0 = no effect, 100 = complete control
How it was run: as §3

[15] = 125 g ai/ha, 0 to 100 scale, 0 no effect, 100 complete control
[16] = 500 g ai/ha, 0 to 100 scale (0 no effect, 100 complete control)
[17] = Postemergence, 500 g ai/ha, 0 to 100 scale (0 no effect, 100 complete control)
[18] = postemergence, 125 g ai/ha, about 10 days, visual rating on 0 to 100 scale (0 no effect, 100 complete control)
[19] = 31 g ai/ha, visual rating, scale 0 to 100 (0 no effect, 100 complete control), 13 to 15 days
[20] = 62 g ai/ha, scale 0 to 100 (0 no effect, 100 complete control), 13 to 15 days
[21] = 250 g ai/ha, scale 0 to 100, 0 is no effect, 100 is complete control

SMILES | Velvetleaf plant response rating (0 to 100 scale) [1] | Velvetleaf plant response rating [1] | Plant response rating, Barnyardgrass [2] | Velvetleaf plant response rating [3, 15] | Velvetleaf plant response rating [3, 16] | Foxtail, Giant plant response rating [4, 17] | Foxtail, Giant plant response rating [4, 18] | Wheat plant response rating (0 to 100 scale) [5] | Wheat plant response rating [5] | Foxtail, Giant plant response rating (0 to 100 scale) [6] | Foxtail, Giant plant response rating [6] | Barnyardgrass plant response rating [7, 17] | Barnyardgrass plant response rating [7, 18] | Barnyardgrass plant response rating (0 to 100 scale, 0 is no effect, 100 is complete control) [8] | Barnyardgrass plant response rating [8] | Corn plant response rating (0 to 100 scale) [9] | Corn plant response rating [9] | Plant response rating, Sedge, Umbrella [10] | Pigweed plant response rating [11, 20] | Plant response rating, Pigweed ([11]; 13 to 15 days) | further results
CCOc1cc(C(=O)NC(C)C)nn1Cc1ccnc(C(F)(F)F)c1 [Compound 188] | 100 | 100 | 75 | 100 | 100 | 90 | 90 | 100 | 100 | 100 | 100 | 90 | 90 | 100 | 100 | 100 | 100 | 90 | 100 | 100 | Pigweed plant response rating [11, 19]: 100; Pigweed plant response rating [11, 21]: 100; Nutsedge, Yellow plant response rating [12, 19]: 30; Nutsedge, Yellow plant response rating [12, 20]: 65; Plant response rating, Nutsedge, Yellow ([12]; 13 to 15 days): 95; Nutsedge, Yellow plant response rating [12, 21]: 98; Morningglory plant response rating [13, 19]: 98; Morningglory plant response rating [13, 20]: 98; Plant response rating, Morningglory ([13]; 13 to 15 days): 98; Morningglory plant response rating [13, 21]: 100; Crabgrass, Large plant response rating [14, 19]: 100; Crabgrass, Large plant response rating [14, 20]: 100; Plant response rating, Crabgrass, Large ([14]; 13 to 15 days): 100; Crabgrass, Large plant response rating [14, 21]: 100
CCOc1cc(C(=O)NC2CC2)nn1Cc1ccnc(C(F)(F)F)c1 [Compound 189] | 100 | 100 | 60 | 100 | 100 | 90 | 90 | 90 | 100 | 100 | 100 | 90 | 90 | 90 | 100 | 80 | 100 | 90 | 100 | 100 | Pigweed plant response rating [11, 19]: 100; Pigweed plant response rating [11, 21]: 100; Nutsedge, Yellow plant response rating [12, 19]: 25; Nutsedge, Yellow plant response rating [12, 20]: 80; Plant response rating, Nutsedge, Yellow ([12]; 13 to 15 days): 85; Nutsedge, Yellow plant response rating [12, 21]: 95; Morningglory plant response rating [13, 19]: 95; Morningglory plant response rating [13, 20]: 98; Plant response rating, Morningglory ([13]; 13 to 15 days): 98; Morningglory plant response rating [13, 21]: 100; Crabgrass, Large plant response rating [14, 19]: 100; Crabgrass, Large plant response rating [14, 20]: 100; Plant response rating, Crabgrass, Large ([14]; 13 to 15 days): 100; Crabgrass, Large plant response rating [14, 21]: 100
CCONC(=O)c1cc(OCC)n(Cc2ccnc(C(F)(F)F)c2)n1 [Compound 195] | 80 | 100 | 10 | 70 | 100 | 100 | 80 | 80 | 100 | 90 | 90 | 90 | 70 | 90 | 100 | 0 | 90 | 95 | 98 | 100 | Pigweed plant response rating [11, 21]: 100; Nutsedge, Yellow plant response rating [12, 19]: 20; Nutsedge, Yellow plant response rating [12, 20]: 85; Plant response rating, Nutsedge, Yellow ([12]; 13 to 15 days): 85; Nutsedge, Yellow plant response rating [12, 21]: 95; Morningglory plant response rating [13, 19]: 35; Morningglory plant response rating [13, 20]: 100; Plant response rating, Morningglory ([13]; 13 to 15 days): 100; Morningglory plant response rating [13, 21]: 100; Crabgrass, Large plant response rating [14, 19]: 100; Crabgrass, Large plant response rating [14, 20]: 95; Plant response rating, Crabgrass, Large ([14]; 13 to 15 days): 100; Crabgrass, Large plant response rating [14, 21]: 100
